The test system of this experiment is carbachol- or histamine-induced bronchoconstriction. The experiment is described as follows: Bronchodilator Test Method I, anesthetized dog, intravenous activity. The conditions noted are these: Canis lupus familiaris, read-out: Bronchodilatation; for inhibition in vivo at 0.014 mg/kg: 14 mcg/kg i.v.; for inhibition in vivo at 0.056 mg/kg: 56 mcg/kg i.v.; for inhibition in vivo at 0.095 mg/kg: 95 mcg/kg i.v.; for inhibition in vivo at 0.19 mg/kg: 190 mcg/kg i.v.; for inhibition in vivo at 0.38 mg/kg: 380 mcg/kg i.v.; for inhibition in vivo at 0.02 mg/kg: 20 mcg/kg i.v.; for inhibition in vivo at 0.1 mg/kg: 100 mcg/kg i.v.; for inhibition in vivo at 0.005 mg/kg: 5 mcg/kg i.v.; for inhibition in vivo at 0.294 mg/kg: 294 mcg/kg i.v.; for inhibition in vivo at 1.176 mg/kg: 1176 mcg/kg i.v.; for inhibition in vivo at 0.147 mg/kg: 147 mcg/kg i.v. The class given is in vivo. Here is the method: Bronchodilator activity was tested in anesthetized dogs (Test Method I) and in vitro on the perfused guinea pig lung (Test Method II), using the following pharmacological test procedures
Male and female dogs weighing 9-18 kg. each were anesthetized with pentobarbital sodium (30 mg./kg. i.v.). Each animal, with thorax opened at the midsternum, was maintained under artificial ventilation using a constant volume pump (250 ml./stroke; 10 to 12 strokes per minute) attached to the tracheal cannula. The flow of air was controlled by a glass or plastic valve which closed and opened respectively on inflow and outflow of the air to and from the tracheal cannula. Bronchoconstriction and/or bronchodilatation were measured from changes in the basal airway pressure reflected by a transducer attached to the sidearm of the cannula relayed to a polygraph.
Control bronchoconstrictions were induced by intravenous injections of carbachol (choline chloride carbamate) in doses ranging from 4 to 6 micrograms per kilogram or histamine diphosphate in doses ranging from 35 to 45 micrograms per kilogram.
Solutions of the test compounds were prepared in distilled water or in saline (for infusion). […] These solutions were then tested for bronchodilator activity in three ways, viz. (1) by mixing a graded dose of test compound with the constant does of carbachol or histamine in a syringe and injecting the mixture into the femoral vein of the dog, (2) by producing the bronchoconstriction first and injecting the test compound at the time of maximum constriction, and (3) by injecting the test compound first followed by carbachol or histamine in 1-10 minutes. Injections were repeated at 20-30 minutes. Bronchodilator values were obtained by measuring the areas under the response polygraph tracings (the first 5 munite period) of carbachol or histamine controls and of the experimentals using a planimeter. Decrease in the area thus measured was expressed as a percent bronchodilatation in reference to the area of control carbachol or histamine constriction. The mean bronchodilatations (the reductions in constrictions) were plotted against the doses administered and the mean effective dose (ED50) was estimated in micrograms/kilogram from the does-response curves. Blood pressure recording was taken from the femoral artery using an arterial transducer relayed to a polygraph.

Where a name gives a salt, the structure may show the parent alone. Read-outs that look alike come from different tables or passages of the source.

With `COc1ccc(CC(=O)Oc2ccc(C(O)CNC(C)(C)C)cc2OC(=O)Cc2ccc(OC)cc2)cc1` (stereo not drawn) [Example 118, 3,4-bis(p-methoxyphenylacetoxy)-alpha-(tert-butylaminomethyl)benzyl alcohol hydrochloride], the inhibition in vivo at 0.014 mg/kg came to 68% (5 min, 5 min); 61% (0.5 h, 30 min); 35% (1 h, 60 min); 7% (2 h, 120 min). The inhibition in vivo at 0.056 mg/kg came out at 100% (5 min, 5 min); 60% (0.5 h, 30 min); 45% (1 h, 60 min); 12% (2 h, 120 min).
Take `Cc1ccccc1C(=O)Oc1ccc(C(O)CNC(C)(C)C)cc1OC(=O)c1ccccc1C` (stereo not drawn) [Example 111, 3,4-bis(o-toluyloxy)-alpha-(tert-butylaminomethyl)benzyl alcohol methanesulfonate]: the inhibition in vivo at 0.0095 mg/kg (1 min, 9.5 mcg/kg i.v., 1-2 min) turned out to be 0%. The inhibition in vivo at 0.095 mg/kg runs as follows: (1 min, 1-2 min) 34%; (0.5 h, 30 min) 36%; (2 h, 120 min) 32%; (3 h, 180 min) 48%; (4 h, 240 min) 41%; (5 h, 300 min) 50%. The inhibition in vivo at 0.19 mg/kg by setting is: (1 min, 1-2 min) 27%; (1 h, 60 min) 18%; (2 h, 120 min) 31%; (3 h, 180 min) 35%; (4 h, 240 min) 41%; (5 h, 300 min) 25%. For the same compound, the inhibition in vivo at 0.38 mg/kg turned out to be 33% (1 min, 1-2 min); 53% (0.5 h, 30 min); 55% (2 h, 120 min); 38% (3 h, 180 min). Further, the inhibition in vivo at 0.0475 mg/kg (2 h, 47.5 mcg/kg i.v., 120 min) is 0%.
As to `CC(C)CC(=O)OCc1cc(C(O)CNC(C)(C)C)ccc1OC(=O)CC(C)C` (stereo not drawn) [Example 136, 3-(isovaleryloxymethyl)-4-(isovaleryloxy)-alpha-(tert-butylaminomethyl)benzyl alcohol methanesulfonate], the inhibition in vivo at 0.02 mg/kg (5 min, 5 min) is 36%; the inhibition in vivo at 0.02 mg/kg (0.5 h, 30 min) stood at 53%; the inhibition in vivo at 0.02 mg/kg (1 h, 60 min) was found to be 57%; the inhibition in vivo at 0.02 mg/kg (2 h, 120 min) amounted to 40%; the inhibition in vivo at 0.02 mg/kg (3 h, 180 min) came to 12%; the inhibition in vivo at 0.02 mg/kg (4 h, 240 min) was 7%. Moreover, the inhibition in vivo at 0.02 mg/kg (5 h, 300 min) is 12%. The inhibition in vivo at 0.1 mg/kg (5 min, 5 min) was 82%; the inhibition in vivo at 0.1 mg/kg (0.5 h, 30 min) stood at 80%; the inhibition in vivo at 0.1 mg/kg (1 h, 60 min) came out at 70%; the inhibition in vivo at 0.1 mg/kg (2 h, 120 min) is 60%; the inhibition in vivo at 0.1 mg/kg (3 h, 180 min) worked out at 42%; the inhibition in vivo at 0.1 mg/kg (5 h, 300 min) worked out at 32%. Besides, the inhibition in vivo at 0.005 mg/kg reads like this: (1 h, 60 min) 47%; (3 h, 180 min) 53%; (4 h, 240 min) 46%; (5 h, 300 min) 46%.
For the compound `CNCC(O)c1ccc(OC(=O)c2ccc(C)cc2)c(OC(=O)c2ccc(C)cc2)c1` (stereo not drawn) [Example 126, 3,4-bis(p-toluyloxy)-alpha-(methylaminomethyl)benzyl alcohol methanesulfonate], for the setting “1 min, 1-2 min”, the inhibition in vivo at 0.294 mg/kg was 13% and the inhibition in vivo at 1.176 mg/kg was found to be 100%. Also, for the setting “0.5 h, 30 min”, the inhibition in vivo at 0.147 mg/kg amounted to 27%, the inhibition in vivo at 0.294 mg/kg came to 8% and the inhibition in vivo at 1.176 mg/kg turned out to be 47%. Further, for the setting “1 h, 60 min”, the inhibition in vivo at 0.147 mg/kg was found to be 15%, the inhibition in vivo at 0.294 mg/kg was found to be 17% and the inhibition in vivo at 1.176 mg/kg turned out to be 20%.

For the origin of these results see patent publication USRE30241E, “Esters of 3-(hydroxy or hydroxymethyl)-4-hydroxyphenyl aminomethyl ketones” (Sterling Drug Inc., priority 1970, dated 1980).
